Assays:
[1] = system: normal NK cells expanded with K562-aAPC; assay: percent inhibition of viability; higher = more inhibition; conditions: 72 h, IL-2 2.5 ng/mL
Description: (§1)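 Drug sensitivity and resistance testing on K562-aAPC-expanded normal NK cells: 5 concentrations (10-fold steps over a 10,000-fold range), 72 h at 37 °C, viability by CellTiter-Glo normalised to DMSO and benzethonium chloride controls; DSS from the fitted curve.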

DERL-7 (IL-2 2.5 ng/mL) [2] = assay: as above; conditions: 72 h
IMC-1 (IL-2 20 ng/mL) [3] = assay: as above; conditions: 72 h
KAI3 (IL-2 2.5 ng/mL) [4] = assay: as above; conditions: 72 h
KHYG-1 (IL-2 2.5 ng/mL) [5] = assay: as above; conditions: 72 h
NK-92 (IL-2 2.5 ng/mL) [6] = assay: as above; conditions: 72 h
NK-YS (IL-2 2.5 ng/mL) [7] = assay: as above; conditions: 72 h
NKL (IL-2 2.5 ng/mL) [8] = assay: as above; conditions: 72 h
SNK-6 (IL-2 2.5 ng/mL) [9] = assay: as above; conditions: 72 h
YT (IL-2 2.5 ng/mL) [10] = assay: as above; conditions: 72 h
[11] = system: normal primary NK cells, pool 1 (3 donors) (IL-2 2.5 ng/mL); assay: as above; conditions: 72 h
[12] = system: normal primary NK cells, pool 1 (3 donors), resting (IL-2 0 ng/mL); assay: as above; conditions: 72 h
[13] = system: normal primary NK cells, pool 2 (3 donors) (IL-2 2.5 ng/mL); assay: as above; conditions: 72 h
[14] = system: normal primary NK cells, pool 3 (3 donors) (IL-2 2.5 ng/mL); assay: as above; conditions: 72 h
[15] = system: normal NK cells expanded with K562-aAPC; assay: drug sensitivity score (DSS) (DSS units); higher = more sensitive; extreme values may be limits of the assay; conditions: 72 h; IL-2 2.5 ng/mL
Description: as §1

DERL-7 (IL-2 2.5 ng/mL) [16] = assay: as above; conditions: 72 h
IMC-1 (IL-2 20 ng/mL) [17] = assay: as above; conditions: 72 h
KAI3 (IL-2 2.5 ng/mL) [18] = assay: as above; conditions: 72 h
KHYG-1 (IL-2 2.5 ng/mL) [19] = assay: as above; conditions: 72 h
NK-92 (IL-2 2.5 ng/mL) [20] = assay: as above; conditions: 72 h
NK-YS (IL-2 2.5 ng/mL) [21] = assay: as above; conditions: 72 h
NKL (IL-2 2.5 ng/mL) [22] = assay: as above; conditions: 72 h
SNK-6 (IL-2 2.5 ng/mL) [23] = assay: as above; conditions: 72 h
YT (IL-2 2.5 ng/mL) [24] = assay: as above; conditions: 72 h
[25] = system: normal primary NK cells, pool 1 (3 donors) (IL-2 2.5 ng/mL); assay: as above; conditions: 72 h
[26] = system: normal primary NK cells, pool 1 (3 donors), resting (IL-2 0 ng/mL); assay: as above; conditions: 72 h
[27] = system: normal primary NK cells, pool 2 (3 donors) (IL-2 2.5 ng/mL); assay: as above; conditions: 72 h
[28] = system: normal primary NK cells, pool 3 (3 donors) (IL-2 2.5 ng/mL); assay: as above; conditions: 72 h

C[C@]12C=CC(=O)C=C1CC[C@@H]1[C@@H]2[C@@H](O)C[C@@]2(C)[C@H]1CC[C@]2(O)C(=O)CO [Prednisolone] (max concentration tested 10000 nM)
percent inhibition of viability [%]
Conditions | 1 nM | 10 nM | 100 nM | 1000 nM | 10000 nM
DERL-7 (IL-2 2.5 ng/mL) [2] | -5.13 | 1.92 | 70 | 98 | 99.5
IMC-1 (IL-2 20 ng/mL) [3] | -3.99 | -3.97 | -9.73 | -19.4 | -17
KAI3 (IL-2 2.5 ng/mL) [4] | -9.17 | -13.6 | -7.78 | -7.77 | -8.06
KHYG-1 (IL-2 2.5 ng/mL) [5] | -5.42 | -2.27 | 10.1 | 29.8 | 34.5
NK-92 (IL-2 2.5 ng/mL) [6] | -16 | -15.5 | -34.4 | -24.4 | -24.4
NK-YS (IL-2 2.5 ng/mL) [7] | -2.75 | -1.1 | -1.97 | -1.53 | 5.33
NKL (IL-2 2.5 ng/mL) [8] | 3.58 | 12 | 48.8 | 51.4 | 55.3
SNK-6 (IL-2 2.5 ng/mL) [9] | 5.43 | 22.4 | 7.45 | 10.2 | 35.9
YT (IL-2 2.5 ng/mL) [10] | -0.96 | 6.16 | 13.1 | 20.2 | 18.8
[1] | -2.45 | 5 | 39.2 | 57.3 | 63.9
[11] | 1.14 | 10.2 | 27.4 | 63.4 | 78.3
[12] | 4.52 | 3.57 | 56.8 | 80.2 | 89.9
[13] | -6.45 | -3.01 | 28.6 | 51.2 | 65
[14] | -9.31 | -4.01 | 13.1 | 36.8 | 47.6

Conditions | drug sensitivity score
DERL-7 (IL-2 2.5 ng/mL) [16] | 26.2
IMC-1 (IL-2 20 ng/mL) [17] | 0
KAI3 (IL-2 2.5 ng/mL) [18] | 0
KHYG-1 (IL-2 2.5 ng/mL) [19] | 6.17
NK-92 (IL-2 2.5 ng/mL) [20] | 0
NK-YS (IL-2 2.5 ng/mL) [21] | 0
NKL (IL-2 2.5 ng/mL) [22] | 17.5
SNK-6 (IL-2 2.5 ng/mL) [23] | 4.24
YT (IL-2 2.5 ng/mL) [24] | 3.72
[15] | 16.2
[25] | 15.3
[26] | 23
[27] | 13.2
[28] | 8.07

Oc1nc(-c2ccc(C(F)(F)F)cc2)nc2c1CSCC2 [XAV-939] (max concentration tested 10000 nM)
percent inhibition of viability [%]
Conditions | 1 nM | 10 nM | 100 nM | 1000 nM | 10000 nM
DERL-7 (IL-2 2.5 ng/mL) [2] | -0.97 | 2.31 | -5.81 | -0.61 | -5.6
IMC-1 (IL-2 20 ng/mL) [3] | -0.75 | 0.78 | 6.56 | 9.99 | 39.2
KAI3 (IL-2 2.5 ng/mL) [4] | -2.16 | 1.91 | 4.79 | 4.07 | 5.97
KHYG-1 (IL-2 2.5 ng/mL) [5] | -8.26 | -1.11 | 3.24 | 1.73 | 10.4
NK-92 (IL-2 2.5 ng/mL) [6] | -10.9 | 2.21 | 17.2 | 22 | 31.4
NK-YS (IL-2 2.5 ng/mL) [7] | -12.6 | -2.95 | -1.3 | -3.02 | 5.39
NKL (IL-2 2.5 ng/mL) [8] | 1.91 | -6.23 | 10.7 | 20.1 | 4.9
SNK-6 (IL-2 2.5 ng/mL) [9] | -1.06 | -8.2 | 12.5 | 35.6 | 76
YT (IL-2 2.5 ng/mL) [10] | 4.14 | 5.64 | 7.84 | -1.3 | 6.37
[1] | 1.61 | 2.89 | 1.43 | 14.1 | 19.3
[11] | 7.73 | 0.81 | -0.78 | 0.58 | 4.2
[12] | -4.7 | -1.64 | -3.21 | -28.2 | -2.43
[13] | -8.38 | -12 | -5.14 | 5.25 | 5.51
[14] | -11 | -5.69 | -2.72 | 0.89 | 10.2

Conditions | drug sensitivity score
DERL-7 (IL-2 2.5 ng/mL) [16] | 0
IMC-1 (IL-2 20 ng/mL) [17] | 3.24
KAI3 (IL-2 2.5 ng/mL) [18] | 0
KHYG-1 (IL-2 2.5 ng/mL) [19] | 0.01
NK-92 (IL-2 2.5 ng/mL) [20] | 5.52
NK-YS (IL-2 2.5 ng/mL) [21] | 0
NKL (IL-2 2.5 ng/mL) [22] | 0.48
SNK-6 (IL-2 2.5 ng/mL) [23] | 8.49
YT (IL-2 2.5 ng/mL) [24] | 0
[15] | 1.76
[25] | 0
[26] | 0
[27] | 0
[28] | 0
